Test results taken from the NIST ThermoML archive (doi:10.1021/je501133u).

Test: xn = mol fraction of the nth substance listed
Settings: 100 kPa, Liquid; for viscosity: Falling or rolling sphere viscometry; for mass density: Vibrating tube method

CCCCCCCO [heptan-1-ol] + CCO
Settings | mass density [kg/m3] | viscosity [mPa·s]
293.15 K, x2 = 0 | 822.3 | 7.15
293.15 K, x2 = 0.1 | 820.6 | 6.21
293.15 K, x2 = 0.2004 | 818.7 | 5.36
293.15 K, x2 = 0.3007 | 816.9 | 4.63
293.15 K, x2 = 0.3995 | 814.7 | 4.04
293.15 K, x2 = 0.5007 | 812.1 | 3.41
293.15 K, x2 = 0.5995 | 809 | 2.85
293.15 K, x2 = 0.7001 | 805.5 | 2.34
293.15 K, x2 = 0.8002 | 801.4 | 1.9
293.15 K, x2 = 0.9003 | 796.5 | 1.52
298.15 K, x2 = 0 | 818.8 | 6.07
298.15 K, x2 = 0.1 | 817.1 | 5.29
298.15 K, x2 = 0.2004 | 815.1 | 4.59
298.15 K, x2 = 0.3007 | 813.3 | 4
298.15 K, x2 = 0.3995 | 811.1 | 3.51
298.15 K, x2 = 0.5007 | 808.4 | 2.99
298.15 K, x2 = 0.5995 | 805.3 | 2.52
298.15 K, x2 = 0.7001 | 801.6 | 2.09
298.15 K, x2 = 0.8002 | 797.4 | 1.71
298.15 K, x2 = 0.9003 | 792.4 | 1.38
303.15 K, x2 = 0 | 815.3 | 5.18
303.15 K, x2 = 0.1 | 813.6 | 4.54
303.15 K, x2 = 0.2004 | 811.6 | 3.96
303.15 K, x2 = 0.3007 | 809.7 | 3.48
303.15 K, x2 = 0.3995 | 807.4 | 3.07
303.15 K, x2 = 0.5007 | 804.7 | 2.64
303.15 K, x2 = 0.5995 | 801.5 | 2.23
303.15 K, x2 = 0.7001 | 797.8 | 1.87
303.15 K, x2 = 0.8002 | 793.5 | 1.54
303.15 K, x2 = 0.9003 | 788.3 | 1.25
308.15 K, x2 = 0 | 811.8 | 4.44
308.15 K, x2 = 0.1 | 810 | 3.91
308.15 K, x2 = 0.2004 | 808 | 3.44
308.15 K, x2 = 0.3007 | 806 | 3.03
308.15 K, x2 = 0.3995 | 803.8 | 2.7
308.15 K, x2 = 0.5007 | 800.9 | 2.33
308.15 K, x2 = 0.5995 | 797.7 | 1.99
308.15 K, x2 = 0.7001 | 793.9 | 1.67
308.15 K, x2 = 0.8002 | 789.5 | 1.39
308.15 K, x2 = 0.9003 | 784.2 | 1.13
313.15 K, x2 = 0 | 808.2 | 3.83
313.15 K, x2 = 0.1 | 806.4 | 3.39
313.15 K, x2 = 0.2004 | 804.4 | 3
313.15 K, x2 = 0.3007 | 802.4 | 2.66
313.15 K, x2 = 0.3995 | 800.1 | 2.38
313.15 K, x2 = 0.5007 | 797.2 | 2.07
313.15 K, x2 = 0.5995 | 793.8 | 1.78
313.15 K, x2 = 0.7001 | 790 | 1.5
313.15 K, x2 = 0.8002 | 785.4 | 1.26
313.15 K, x2 = 0.9003 | 780 | 1.03
318.15 K, x2 = 0 | 804.6 | 3.33
318.15 K, x2 = 0.1 | 802.8 | 2.96
318.15 K, x2 = 0.2004 | 800.7 | 2.63
318.15 K, x2 = 0.3007 | 798.7 | 2.35
318.15 K, x2 = 0.3995 | 796.3 | 2.11
318.15 K, x2 = 0.5007 | 793.4 | 1.85
318.15 K, x2 = 0.5995 | 790 | 1.6
318.15 K, x2 = 0.7001 | 786 | 1.36
318.15 K, x2 = 0.8002 | 781.4 | 1.14
318.15 K, x2 = 0.9003 | 775.8 | 0.94
323.15 K, x2 = 0 | 801 | 2.89
323.15 K, x2 = 0.1 | 799.1 | 2.59
323.15 K, x2 = 0.2004 | 797 | 2.31
323.15 K, x2 = 0.3007 | 794.9 | 2.08
323.15 K, x2 = 0.3995 | 792.5 | 1.88
323.15 K, x2 = 0.5007 | 789.5 | 1.65
323.15 K, x2 = 0.5995 | 786 | 1.44
323.15 K, x2 = 0.7001 | 782 | 1.23
323.15 K, x2 = 0.8002 | 777.2 | 1.04
323.15 K, x2 = 0.9003 | 771.5 | 0.87
328.15 K, x2 = 0 | 797.4 | 2.54
328.15 K, x2 = 0.1 | 795.4 | 2.28
328.15 K, x2 = 0.2004 | 793.3 | 2.05
328.15 K, x2 = 0.3007 | 791.2 | 1.84
328.15 K, x2 = 0.3995 | 788.7 | 1.68
328.15 K, x2 = 0.5007 | 785.6 | 1.48
328.15 K, x2 = 0.5995 | 782.1 | 1.29
328.15 K, x2 = 0.7001 | 777.9 | 1.11
328.15 K, x2 = 0.8002 | 773 | 0.94
328.15 K, x2 = 0.9003 | 767.1 | 0.79

CCCCCCO [hexan-1-ol] + CCO
Settings | mass density [kg/m3] | viscosity [mPa·s]
293.15 K, x2 = 0 | 818.9 | 5.35
293.15 K, x2 = 0.1001 | 816.7 | 4.67
293.15 K, x2 = 0.2003 | 815.1 | 4.15
293.15 K, x2 = 0.3004 | 813.3 | 3.66
293.15 K, x2 = 0.4006 | 811.6 | 3.19
293.15 K, x2 = 0.4998 | 808.7 | 2.76
293.15 K, x2 = 0.6009 | 806 | 2.41
293.15 K, x2 = 0.7001 | 802.9 | 2.03
293.15 K, x2 = 0.7995 | 799.2 | 1.71
293.15 K, x2 = 0.9001 | 794.9 | 1.43
298.15 K, x2 = 0 | 815.3 | 4.56
298.15 K, x2 = 0.1001 | 813.1 | 4.02
298.15 K, x2 = 0.2003 | 811.5 | 3.6
298.15 K, x2 = 0.3004 | 809.7 | 3.19
298.15 K, x2 = 0.4006 | 807.9 | 2.8
298.15 K, x2 = 0.4998 | 805 | 2.44
298.15 K, x2 = 0.6009 | 802.2 | 2.14
298.15 K, x2 = 0.7001 | 798.9 | 1.81
298.15 K, x2 = 0.7995 | 795.2 | 1.54
298.15 K, x2 = 0.9001 | 790.8 | 1.29
303.15 K, x2 = 0 | 811.7 | 3.9
303.15 K, x2 = 0.1001 | 809.5 | 3.48
303.15 K, x2 = 0.2003 | 807.8 | 3.14
303.15 K, x2 = 0.3004 | 806 | 2.8
303.15 K, x2 = 0.4006 | 804.1 | 2.47
303.15 K, x2 = 0.4998 | 801.2 | 2.17
303.15 K, x2 = 0.6009 | 798.4 | 1.91
303.15 K, x2 = 0.7001 | 795 | 1.63
303.15 K, x2 = 0.7995 | 791.2 | 1.39
303.15 K, x2 = 0.9001 | 786.6 | 1.17
308.15 K, x2 = 0 | 808.1 | 3.36
308.15 K, x2 = 0.1001 | 805.9 | 3.03
308.15 K, x2 = 0.2003 | 804.2 | 2.75
308.15 K, x2 = 0.3004 | 802.3 | 2.47
308.15 K, x2 = 0.4006 | 800.4 | 2.19
308.15 K, x2 = 0.4998 | 797.4 | 1.93
308.15 K, x2 = 0.6009 | 794.5 | 1.71
308.15 K, x2 = 0.7001 | 791.1 | 1.47
308.15 K, x2 = 0.7995 | 787.1 | 1.26
308.15 K, x2 = 0.9001 | 782.5 | 1.07
313.15 K, x2 = 0 | 804.5 | 2.91
313.15 K, x2 = 0.1001 | 802.2 | 2.65
313.15 K, x2 = 0.2003 | 800.5 | 2.42
313.15 K, x2 = 0.3004 | 798.5 | 2.18
313.15 K, x2 = 0.4006 | 796.6 | 1.94
313.15 K, x2 = 0.4998 | 793.6 | 1.73
313.15 K, x2 = 0.6009 | 790.6 | 1.54
313.15 K, x2 = 0.7001 | 787.1 | 1.32
313.15 K, x2 = 0.7995 | 783 | 1.14
313.15 K, x2 = 0.9001 | 778.2 | 0.97
318.15 K, x2 = 0 | 800.8 | 2.54
318.15 K, x2 = 0.1001 | 798.5 | 2.33
318.15 K, x2 = 0.2003 | 796.7 | 2.14
318.15 K, x2 = 0.3004 | 794.8 | 1.94
318.15 K, x2 = 0.4006 | 792.7 | 1.73
318.15 K, x2 = 0.4998 | 789.7 | 1.55
318.15 K, x2 = 0.6009 | 786.6 | 1.39
318.15 K, x2 = 0.7001 | 783 | 1.2
318.15 K, x2 = 0.7995 | 778.9 | 1.04
318.15 K, x2 = 0.9001 | 774 | 0.89
323.15 K, x2 = 0 | 797.1 | 2.23
323.15 K, x2 = 0.1001 | 794.8 | 2.06
323.15 K, x2 = 0.2003 | 793 | 1.9
323.15 K, x2 = 0.3004 | 790.9 | 1.73
323.15 K, x2 = 0.4006 | 788.9 | 1.55
323.15 K, x2 = 0.4998 | 785.7 | 1.39
323.15 K, x2 = 0.6009 | 782.6 | 1.25
323.15 K, x2 = 0.7001 | 779 | 1.09
323.15 K, x2 = 0.7995 | 774.7 | 0.94
323.15 K, x2 = 0.9001 | 769.7 | 0.81
328.15 K, x2 = 0 | 793.4 | 1.97
328.15 K, x2 = 0.1001 | 791 | 1.82
328.15 K, x2 = 0.2003 | 789.2 | 1.69
328.15 K, x2 = 0.3004 | 787.1 | 1.54
328.15 K, x2 = 0.4006 | 784.9 | 1.39
328.15 K, x2 = 0.4998 | 781.8 | 1.25
328.15 K, x2 = 0.6009 | 778.6 | 1.13
328.15 K, x2 = 0.7001 | 774.8 | 0.99
328.15 K, x2 = 0.7995 | 770.4 | 0.86
328.15 K, x2 = 0.9001 | 765.3 | 0.75
